# Assay results published in US20240268421A1, “FOOD COLOURING AGENTS” (v2food Pdy Ltd, priority 2020, published 2024).
# Legend:
# [1] = system: Caco-2/HT29-MTX-E12 transwell model; experiment: Ferritin formation in intestinal barrier model (bioavailability of iron); type: cell-based, Human
# Experimental: Human Caco-2(enterocytes) and HT29-MTX-E12 (goblet) cells grown on a semi-permeable membrane comprise the intestinal barrier model. The co-cultures were grown on transwells as described below: • Caco-2 cells and HT29-MTX-E12 cells flasks were passaged when ˜90% confluent. • Cells were counted using a haemocytometer (or Coulter counter) to determine cell number/mL. • 0.6 mL growth media (no cells) was added to basolateral chamber of transwells. • 0.2 mL Caco-2/HT29-MTX-E12 cell solution was carefully added into apical chamber to achieve 3.6×104 Caco-2 and 4×10^3 HT29-MTX cells. • Co-cultures were grown on transwells for 21 days with media changed every 2-3 days. • At 21 days transepithelial electric resistance (or TEER) was measured using a Millicell voltohmeter from the apical to basolateral chamber (FIG. 1). These measurements indicate integrity of cell layer ensuring the cells are polarised and an intact barrier is ready for experimentation. […] Treatments were removed, replaced with HBSS, and incubated overnight. • After 16-18 hours cells (on apical side) were washed with PBS before trypsin was applied to remove cells from transwell membranes. • Cells were collected by centrifuging for 5 minutes. • Abcam ferritin assay was conducted according to manufacturer's instructions.
# Results from the ferritin assay were analysed for significant differences using unpaired t tests. Differences were deemed significant when P<0.05. All statistical analyses were performed using GraphPad Prism 5 software.
# All samples treatments were performed in the presence of 80 μM ascorbic acid.
# [2] = Iron binding by fluorescence emission scan; settings: 1 mg/mL protein, 0-32 mM iron chloride, excitation 498 nm
# Experimental: Phycoerythrin extract from Example 1 (extraction included ultrasound treatment) was dissolved at a concentration of 2 mg/mL in 20 mM sodium phosphate buffer, pH 7 containing 0.02% sodium azide. Iron (II) chloride was dissolved in the same buffer at an initial concentration of 100 mM. The dissolved phycoerythrin extract was mixed 1:1 with a concentration series of iron chloride to give a final protein concentration of 1 mg/mL and final iron chloride concentrations of 0, 0.25, 0.5, 1, 2, 4, 8, 16 and 32 mM.
# A fluorescence emission scan from 515-700 nm using an excitation wavelength of 498 nm was then performed on all samples using a Thermofisher Varioskan Flash (Instrument version 4.00.52). R-phycoerythrin has an emission maximum of 575 nm and therefore if iron binding occurs with the linear tetrapyrrole moiety of the protein, a change in fluorescence will be observed.
# [3] = Heating of phycoerythrin extracts, colour change visualised; type: physicochemical
# Experimental: First, the crude, homogenised phycoerythrin, before clarification, was heated at 95° C. for 5 min and the colour change visualised.
# (§1) Therefore, to gain a precise measurement of the thermal denaturation temperature of phycoerythrin, differential scanning fluorometry (DSF) was undertaken by heating 100 uL of clarified phycoerythrin from 25-95° C. by increasing the temperature by 0.5° C./10 sec.
# Thermal denaturation of each Phycoerythrin sample (a)-(d) was undertaken. The results are depicted in FIG. 4.
# [4] = Differential scanning fluorometry (DSF) thermal denaturation of clarified phycoerythrin; type: physicochemical; settings: heated 25-95° C. at 0.5° C./10 sec
# Experimental: as §1
# [5] = 25 μM Fe solutions, with 4 mg/mL phycoerythrin, 80 μM ascorbic acid
# [6] = 25 μM Fe solutions, with 8 mg/mL phycoerythrin, 80 μM ascorbic acid
# [7] = 25 μM Fe solutions, without phycoerythrin, 80 μM ascorbic acid
# [8] = 25 μM iron, co-treatment with 4 or 8 mg/mL phycoerythrin
# [9] = 50 μM Fe solutions, with 4 mg/mL phycoerythrin, 80 μM ascorbic acid
# [10] = 50 μM Fe solutions, with 8 mg/mL phycoerythrin, 80 μM ascorbic acid
# [11] = 50 μM Fe solutions, without phycoerythrin, 80 μM ascorbic acid
Compound,"Ferritin [1, 5] [ng/mL]","Ferritin [1, 6] [ng/mL]","Ferritin [1, 7] [ng/mL]","Ferritin production compared to cells only treated with the iron solution [1, 8]","Ferritin [1, 9] [ng/mL]","Ferritin [1, 10] [ng/mL]","Ferritin [1, 11] [ng/mL]","Ferritin production compared to cells only treated with the iron solution ([1]; 50 μM iron, co-treatment with 4 mg/mL phycoerythrin)",Change of fluorescence emission with iron [2],Colour change upon heating ([3]; 60° C. and 70° C. for 1 hour),"Colour change upon heating ([3]; crude, homogenised, before clarification, 95° C. for 5 min)",Thermal denaturation temperature where phycoerythrin loses its fluorescence [4] [°C],"Ferritin ([1]; No Fe, 4 mg/mL phycoerythrin (section of 25 μM Fe solutions)) [ng/mL]","Ferritin ([1]; No Fe, 8 mg/mL phycoerythrin (section of 25 μM Fe solutions))","Ferritin ([1]; No Fe, 8 mg/mL phycoerythrin (section of 50 μM Fe solutions)) [ng/mL]","Ferritin production compared to treatment with iron solutions ([1]; only 4 mg/mL phycoerythrin, no added iron)","Ferritin production compared to treatment with ferric chloride ([1]; only 8 mg/mL phycoerythrin, no added iron)"
"[Cl][Fe][Cl] [Fe (II) chloride, Iron (II) chloride]",15.8 ± 1.7,13.9 ± 1.8,4.4 ± 1.0,significantly improved ferritin production,10.1 ± 3.5,16.0 ± 5.9,5.2 ± 1.6,–,–,–,–,–,–,–,–,–,–
"[Cl][Fe]([Cl])[Cl] [Fe (III) chloride, Iron (III) chloride]",12.7 ± 0.9,12.7 ± 1.1,3.3 ± 0.5,significantly improved ferritin production,13.0 ± 3.1,1.8 ± 0.6,1.7 ± 0.8,significantly improved ferritin production,–,–,–,–,–,–,–,–,–
phycoerythrin,–,–,–,–,–,–,–,–,decrease in phycoerythrin fluorescence with increasing iron concentration,no colour change,turned from red to brown,77,12.2 ± 0.3,7.5 ± 1.6^ ng/mL,2.5 ± 0.4,significantly increased ferritin production,significantly increased ferritin
